# Laboratory results reported in patent US9593305B2, “Differentiation of pluripotent stem cells” (Janssen Biotech, Inc., priority 2008, dated 2017).
# System: H1 human embryonic stem cells
# Assay: Secondary assay: panel of compounds with growth factor combinations and muscimol, no activin A (Example 6, Table 5)
# Type: cell-based
# Settings: no AA (with Wnt3a)
# [1] = EGF + FGF4 + PDGF-AB + Muscimol
smiles,measurement,setting,value
"O=C1NCCCc2cncc(c2)-c2ncnc(n2)Nc2cccc(c2)CN2CCC1CC2 [Compound 22, 1,8,10,12,16,22,30-Heptaazapentacyclo[22.2.2.1-3,7˜0.1˜9,13˜1-14,18˜]hentriaconta-3(31), 4,6,9(30), 10,12,14(29), 15,17-nonaen-23-one]","Cell Number, % of positive control",EGF,149.19%
same,"Cell Number, Average Total Cell Number",EGF,14105
same,"Sox17 Expression, % of positive control",EGF,1.02%
same,"Sox17 Expression, Average Total Intensity",EGF,1.75E+06
same,"Cell Number, % of positive control",EGF + FGF4,137.19%
same,"Cell Number, Average Total Cell Number",EGF + FGF4,12971
same,"Sox17 Expression, % of positive control",EGF + FGF4,6.05%
same,"Sox17 Expression, Average Total Intensity",EGF + FGF4,1.04E+07
same,"Cell Number, % of positive control",EGF + FGF4 + PDGF-A + Muscimol,122.80%
same,"Cell Number, Average Total Cell Number",EGF + FGF4 + PDGF-A + Muscimol,11610
same,"Sox17 Expression, % of positive control",EGF + FGF4 + PDGF-A + Muscimol,7.77%
same,"Sox17 Expression, Average Total Intensity",EGF + FGF4 + PDGF-A + Muscimol,1.33E+07
same,"Cell Number, % of positive control",EGF + FGF4 + PDGF-A + VEGF,132.44%
same,"Cell Number, Average Total Cell Number",EGF + FGF4 + PDGF-A + VEGF,12522
same,"Sox17 Expression, % of positive control",EGF + FGF4 + PDGF-A + VEGF,4.59%
same,"Sox17 Expression, Average Total Intensity",EGF + FGF4 + PDGF-A + VEGF,7.88E+06
same,"Cell Number, % of positive control",EGF + FGF4 + PDGF-AB,175.36%
same,"Cell Number, Average Total Cell Number",EGF + FGF4 + PDGF-AB,16580
same,"Sox17 Expression, % of positive control",EGF + FGF4 + PDGF-AB,5.01%
same,"Sox17 Expression, Average Total Intensity",EGF + FGF4 + PDGF-AB,8.60E+06
same,"Cell Number, % of positive control",[1],155.23%
same,"Cell Number, Average Total Cell Number",[1],14676
same,"Sox17 Expression, % of positive control",[1],3.27%
same,"Sox17 Expression, Average Total Intensity",[1],5.61E+06
same,"Cell Number, % of positive control",EGF + PDGF-A + VEGF,215.48%
same,"Cell Number, Average Total Cell Number",EGF + PDGF-A + VEGF,20372
same,"Sox17 Expression, % of positive control",EGF + PDGF-A + VEGF,2.91%
same,"Sox17 Expression, Average Total Intensity",EGF + PDGF-A + VEGF,4.99E+06
same,"Cell Number, % of positive control",FGF4 + PDGF-A + VEGF,129.85%
same,"Cell Number, Average Total Cell Number",FGF4 + PDGF-A + VEGF,12277
same,"Sox17 Expression, % of positive control",FGF4 + PDGF-A + VEGF,2.86%
same,"Sox17 Expression, Average Total Intensity",FGF4 + PDGF-A + VEGF,4.90E+06
